This note sets out measurements from ChEMBL document CHEMBL1201862, “PubChem BioAssay data set” (2004).

The target of this test is Multidrug resistance protein CDR2 (Candida albicans (strain SC5314 / ATCC MYA-2876) (Yeast), UniProt P78595). Briefly: inhibition of Nile Red efflux via Candida CDR2 – S. cerevisiae AD1-8u, singleplex, Cherry Pick1 hits, dose response (AID 588604). The class given is functional.

Structures are written as SMILES. Calls of active or inactive are those of the source. How the calls were made is not given here.

Sequence of Multidrug resistance protein CDR2 (P78595 whole entry): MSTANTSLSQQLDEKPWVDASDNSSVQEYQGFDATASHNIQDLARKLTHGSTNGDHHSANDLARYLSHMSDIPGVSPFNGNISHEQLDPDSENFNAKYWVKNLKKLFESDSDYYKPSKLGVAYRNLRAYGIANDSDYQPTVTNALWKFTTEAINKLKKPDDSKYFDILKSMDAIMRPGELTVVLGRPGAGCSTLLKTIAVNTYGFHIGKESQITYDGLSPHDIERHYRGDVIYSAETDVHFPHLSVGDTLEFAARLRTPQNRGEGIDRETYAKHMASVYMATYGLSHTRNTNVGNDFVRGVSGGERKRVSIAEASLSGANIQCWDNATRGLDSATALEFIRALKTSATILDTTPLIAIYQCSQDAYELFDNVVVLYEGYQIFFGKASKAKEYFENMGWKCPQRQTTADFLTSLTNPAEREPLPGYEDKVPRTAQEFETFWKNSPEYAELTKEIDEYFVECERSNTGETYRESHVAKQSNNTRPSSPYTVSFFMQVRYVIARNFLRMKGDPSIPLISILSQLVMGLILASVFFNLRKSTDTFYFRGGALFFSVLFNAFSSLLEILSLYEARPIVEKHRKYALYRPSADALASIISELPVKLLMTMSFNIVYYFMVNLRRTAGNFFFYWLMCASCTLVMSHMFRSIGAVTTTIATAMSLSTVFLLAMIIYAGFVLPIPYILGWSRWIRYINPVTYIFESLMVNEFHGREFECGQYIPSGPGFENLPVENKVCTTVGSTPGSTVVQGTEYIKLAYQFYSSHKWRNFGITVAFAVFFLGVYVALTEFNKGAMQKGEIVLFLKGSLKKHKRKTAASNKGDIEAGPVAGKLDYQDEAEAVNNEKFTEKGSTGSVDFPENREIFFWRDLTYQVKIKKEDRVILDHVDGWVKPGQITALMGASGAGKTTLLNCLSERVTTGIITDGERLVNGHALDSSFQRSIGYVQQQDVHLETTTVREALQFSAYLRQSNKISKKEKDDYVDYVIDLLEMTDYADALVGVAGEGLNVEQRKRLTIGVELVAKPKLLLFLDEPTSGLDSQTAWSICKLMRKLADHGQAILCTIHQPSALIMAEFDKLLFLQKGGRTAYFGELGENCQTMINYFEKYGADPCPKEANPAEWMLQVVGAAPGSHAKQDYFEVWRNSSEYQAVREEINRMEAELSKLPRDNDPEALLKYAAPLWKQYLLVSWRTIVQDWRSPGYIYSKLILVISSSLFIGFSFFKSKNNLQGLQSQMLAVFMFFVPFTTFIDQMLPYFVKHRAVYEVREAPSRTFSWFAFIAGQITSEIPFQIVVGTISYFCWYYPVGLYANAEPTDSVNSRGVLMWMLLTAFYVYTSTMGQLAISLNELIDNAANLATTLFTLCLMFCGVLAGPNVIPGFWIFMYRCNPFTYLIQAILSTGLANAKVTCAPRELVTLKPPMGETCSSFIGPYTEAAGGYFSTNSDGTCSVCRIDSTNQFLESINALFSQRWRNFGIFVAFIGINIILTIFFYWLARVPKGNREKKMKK

The EC50 is the midpoint of the concentration-response curve. As for `O=C(N=C(NC(=O)c1ccccc1)Nc1nc2ccccc2o1)c1ccccc1`, the EC50 was 1530 nM (active).
